In brackets after ≈: the same amount, converted by molar mass. Residues, ends and D or L forms follow the SMILES beside them.
What was measured:
Format in all cases: cell-based
[1] = test system: Staphylococcus aureus
Procedure: (§1) Minimum Inhibitory Concentration (MIC) of these antibacterial peptides (1) to (5) against Staphylococcus aureus, methicillin resistant Staphylococcus aureus (MRSA), Escherichia coli and Pseudomonas aeruginosa was determined.

[2] = test system: methicillin resistant Staphylococcus aureus (MRSA)
Procedure: as §1

[3] = test system: Pseudomonas aeruginosa
Procedure: as §1

Compound | MIC S. aureus [1] [µg/mL] | MIC MRSA [2] [µg/mL] | MIC P. aeruginosa [3] [µg/mL]
CC[C@H](C)[C@H](NC(=O)[C@H](C)NC(=O)[C@H](CC(C)C)NC(=O)[C@H](CC(C)C)NC(=O)[C@H](CC(C)C)NC(=O)[C@H](C)N)C(=O)N[C@@H](CCCNC(=N)N)C(=O)N[C@@H](CCCCN)C(=O)N[C@@H](CCCNC(=N)N)C(N)=O [present peptide (2), Ala-Leu-Leu-Leu-Ala-Ile-Arg-Lys-Arg-NH2] (H-ALLLAIRKR-NH2; N-terminus assumed) | 4 (≈ 3.8 µM) | 40 (≈ 38 µM) | 4 (≈ 3.8 µM)
CC[C@H](C)[C@H](NC(=O)[C@H](C)NC(=O)[C@H](CC(C)C)NC(=O)[C@H](CCCNC(=N)N)NC(=O)[C@H](CC(C)C)NC(=O)[C@H](C)N)C(=O)N[C@@H](CCCNC(=N)N)C(=O)N[C@@H](CCCCN)C(=O)N[C@@H](CCCNC(=N)N)C(N)=O [present peptide (1), Ala-Leu-Arg-Leu-Ala-Ile-Arg-Lys-Arg-NH2] (H-ALRLAIRKR-NH2; N-terminus assumed) | 5 (≈ 4.56 µM) |  | >15

The next lines start with the values.

MIC S. aureus [1] [µg/mL] | MIC MRSA [2] [µg/mL] | MIC P. aeruginosa [3] [µg/mL] | Compound
2 (≈ 1.81 µM) | 30 (≈ 27.2 µM) | 4 (≈ 3.63 µM) | CC[C@H](C)[C@H](NC(=O)[C@H](C)NC(=O)[C@H](CC(C)C)NC(=O)[C@H](Cc1ccc(O)cc1)NC(=O)[C@H](CC(C)C)NC(=O)[C@H](C)N)C(=O)N[C@@H](CCCNC(=N)N)C(=O)N[C@@H](CCCCN)C(=O)N[C@@H](CCCNC(=N)N)C(N)=O [present peptide (4), Ala-Leu-Tyr-Leu-Ala-Ile-Arg-Lys-Arg-NH2]
4 (≈ 3.55 µM) | 40 (≈ 35.5 µM) | 10 (≈ 8.89 µM) | CC[C@H](C)[C@H](NC(=O)[C@H](C)NC(=O)[C@H](CC(C)C)NC(=O)[C@H](Cc1c[nH]c2ccccc12)NC(=O)[C@H](CC(C)C)NC(=O)[C@H](C)N)C(=O)N[C@@H](CCCNC(=N)N)C(=O)N[C@@H](CCCCN)C(=O)N[C@@H](CCCNC(=N)N)C(N)=O [present peptide (5), Ala-Leu-Trp-Leu-Ala-Ile-Arg-Lys-Arg-NH2] (H-ALWLAIRKR-NH2; N-terminus assumed)
3 (≈ 2.67 µM) | 25 (≈ 22.2 µM) | 4 (≈ 3.55 µM) | CC[C@H](C)[C@H](NC(=O)[C@H](C)NC(=O)[C@H](CC(C)C)NC(=O)[C@H](CC(C)C)NC(=O)[C@H](Cc1c[nH]c2ccccc12)NC(=O)[C@H](C)N)C(=O)N[C@@H](CCCNC(=N)N)C(=O)N[C@@H](CCCCN)C(=O)N[C@@H](CCCNC(=N)N)C(N)=O [present peptide (3), Ala-Trp-Leu-Leu-Ala-Ile-Arg-Lys-Arg-NH2] (H-AWLLAIRKR-NH2; N-terminus assumed)

Reference: patent publication US6476189B1, “Antibacterial peptides and antibacterial agents containing such peptides as an effective ingredient” (National Institute of Agrobiological Sciences, priority 1998, dated 2002)
